Like-named read-outs stand apart in the source and are kept apart here.
Experiments:
patients = patients with advanced solid tumors; one hour infusion for 5 consecutive days; cited from earlier work
human MX-1 mammary tumor = test: In vivo antitumor activity vs i.c.-implanted human MX-1 mammary tumor xenograft in athymic mice; conditions: ic MX-1; optimal doses (LD10 or less), schedule QD1-5, administered LP.
P388/BCNU leukemia = test: Antitumor activity against IP-implanted P388/BCNU leukemia in mice; conditions: P388/BCNU, Q1D × 5 (1); for MEDIAN DAY OF DEATH: dying mice only
P388/L-PAM leukemia = conditions: for 50-DAY SURV/TOTAL / % ILS / APPROX. NET LOG10 CHANGE IN TUMOR BURDEN AT END OF Rx / MEDIAN DAY OF DEATH: P388/L-PAM, Q1D × 5 (1); for MEDIAN DAY OF DEATH: dying mice only
P388/0 leukemia = conditions: P388/0, Q1D × 5 (1); for MEDIAN DAY OF DEATH: dying mice only
[1] = tumor-bearing rats, 14C-penclomedine; cited from earlier work
P388/CPA leukemia = test: Antitumor activity against IP-implanted P388/CPA leukemia in mice; type: in vivo, murine; conditions: P388/CPA, Q1D × 5 (1)

For COc1nc(C(Cl)(Cl)Cl)c(Cl)c(OC)c1Cl [PEN, 3,5-dichloro-2,4-dimethoxy-6-(trichloromethyl)pyridine], the “neurotoxicity (dysmetria, ataxia, vertigo)” value (patients) is listed as “principal dose limiting toxicity”, the “Median % ILS (based on dying mice only)” value (human MX-1 mammary tumor) is listed as 88% and the Survivors (human MX-1 mammary tumor) is listed as 0/5. The “50-DAY SURV/TOTAL” value (P388/BCNU leukemia; IP 60.0 mg/kg/dose) was 0/6, the “% ILS” value (P388/BCNU leukemia; IP 60.0 mg/kg/dose) was −6% and the “APPROX. NET LOG10 CHANGE IN TUMOR BURDEN AT END OF Rx” value (P388/BCNU leukemia; IP 60.0 mg/kg/dose) was “+1.8”. The “MEDIAN DAY OF DEATH” value (P388/BCNU leukemia; IP 60.0 mg/kg/dose) was 8.5, the “50-DAY SURV/TOTAL” value (P388/BCNU leukemia; IP 90.0 mg/kg/dose) was 0/6 and the “% ILS” value (P388/BCNU leukemia; IP 90.0 mg/kg/dose) was 0%. The “APPROX. NET LOG10 CHANGE IN TUMOR BURDEN AT END OF Rx” value (P388/BCNU leukemia; IP 90.0 mg/kg/dose) was “+1.7”, the “MEDIAN DAY OF DEATH” value (P388/BCNU leukemia; IP 90.0 mg/kg/dose) was 9.0 and the “50-DAY SURV/TOTAL” value (P388/BCNU leukemia; IP 135.0 mg/kg/dose) was 0/6. The “% ILS” value (P388/BCNU leukemia; IP 135.0 mg/kg/dose) was “+27%”, the “APPROX. NET LOG10 CHANGE IN TUMOR BURDEN AT END OF Rx” value (P388/BCNU leukemia; IP 135.0 mg/kg/dose) was “+1.2” and the “50-DAY SURV/TOTAL” value (P388/L-PAM leukemia; IP 60.0 mg/kg/dose) was 0/6. For the same molecule, the “% ILS” value (P388/L-PAM leukemia; IP 60.0 mg/kg/dose) was 0%, the “APPROX. NET LOG10 CHANGE IN TUMOR BURDEN AT END OF Rx” value (P388/L-PAM leukemia; IP 60.0 mg/kg/dose) was “+1.4” and the “MEDIAN DAY OF DEATH” value (P388/L-PAM leukemia; IP 60.0 mg/kg/dose) was 14.0. For the same molecule, the “50-DAY SURV/TOTAL” value (P388/L-PAM leukemia; IP 90.0 mg/kg/dose) was 0/6, the “% ILS” value (P388/L-PAM leukemia; IP 90.0 mg/kg/dose) was −8% and the “APPROX. NET LOG10 CHANGE IN TUMOR BURDEN AT END OF Rx” value (P388/L-PAM leukemia; IP 90.0 mg/kg/dose) was “+1.6”. For the same molecule, the “MEDIAN DAY OF DEATH” value (P388/L-PAM leukemia; IP 90.0 mg/kg/dose) was 13.0, the “50-DAY SURV/TOTAL” value (P388/L-PAM leukemia; IP 135.0 mg/kg/dose) was 0/6 and the “% ILS” value (P388/L-PAM leukemia; IP 135.0 mg/kg/dose) was −8%. The “APPROX. NET LOG10 CHANGE IN TUMOR BURDEN AT END OF Rx” value (P388/L-PAM leukemia; IP 135.0 mg/kg/dose) was “+1.6”, the “MEDIAN DAY OF DEATH” value (P388/L-PAM leukemia; IP 135.0 mg/kg/dose) was 13.0 and the “activity in the P388/L-PAM tumor model (in words)” value (P388/L-PAM leukemia; mouse, in vivo) was “none of the three showed significant activity”. For the same molecule, the “50-DAY SURV/TOTAL” value (P388/0 leukemia; IP 60.0 mg/kg/dose) was 0/6, the “% ILS” value (P388/0 leukemia; IP 60.0 mg/kg/dose) was “+31%” and the “APPROX. NET LOG10 CHANGE IN TUMOR BURDEN AT END OF Rx” value (P388/0 leukemia; IP 60.0 mg/kg/dose) was “+0.4”. For the same molecule, the “50-DAY SURV/TOTAL” value (P388/0 leukemia; IP 90.0 mg/kg/dose) was 0/6, the “% ILS” value (P388/0 leukemia; IP 90.0 mg/kg/dose) was “+45%” and the “APPROX. NET LOG10 CHANGE IN TUMOR BURDEN AT END OF Rx” value (P388/0 leukemia; IP 90.0 mg/kg/dose) was −0.8. For the same molecule, the “MEDIAN DAY OF DEATH” value (P388/0 leukemia; IP 90.0 mg/kg/dose) was 18.0, the “50-DAY SURV/TOTAL” value (P388/0 leukemia; IP 135.0 mg/kg/dose) was 0/6 and the “% ILS” value (P388/0 leukemia; IP 135.0 mg/kg/dose) was “+90%”. The “APPROX. NET LOG10 CHANGE IN TUMOR BURDEN AT END OF Rx” value (P388/0 leukemia; IP 135.0 mg/kg/dose) was −4.8, the “MEDIAN DAY OF DEATH” value (P388/0 leukemia; IP 135.0 mg/kg/dose) was 21.0 and the “predominant radioactive species in the brain” value [1] was “predominant radioactive species in the brain was penclomedine”. For the same molecule, the “50-DAY SURV/TOTAL” value (P388/CPA leukemia; IP 60.0 mg/kg/dose) was 0/6, the “% ILS” value (P388/CPA leukemia; IP 60.0 mg/kg/dose) was −5% and the “APPROX. NET LOG10 CHANGE IN TUMOR BURDEN AT END OF Rx” value (P388/CPA leukemia; IP 60.0 mg/kg/dose) was “+1.7”. For the same molecule, the “50-DAY SURV/TOTAL” value (P388/CPA leukemia; IP 90.0 mg/kg/dose) was 0/6, the “% ILS” value (P388/CPA leukemia; IP 90.0 mg/kg/dose) was −5% and the “APPROX. NET LOG10 CHANGE IN TUMOR BURDEN AT END OF Rx” value (P388/CPA leukemia; IP 90.0 mg/kg/dose) was “+1.7”. The “50-DAY SURV/TOTAL” value (P388/CPA leukemia; IP 135.0 mg/kg/dose) was 0/6, the “% ILS” value (P388/CPA leukemia; IP 135.0 mg/kg/dose) was −5% and the “APPROX. NET LOG10 CHANGE IN TUMOR BURDEN AT END OF Rx” value (P388/CPA leukemia; IP 135.0 mg/kg/dose) was “+1.7”.
